One data set has as its target T1, human alpha-thrombin (Homo sapiens, UniProt P00734).
T1 construct: commercial human alpha-thrombin (American Diagnostica); purchased American Diagnostica
The experiment in a line: Thrombin-catalyzed hydrolysis of chromogenic substrate Spectozyme TH (in vitro enzyme assay). Format: biochemical. The conditions noted are these: 1 nM thrombin, 37° C., pH 7.4; for IC50: 50 μM Spectozyme TH, read-out: Thr IC50.

For a further data set, the target named is T2, Bovine type 1 trypsin (Bos taurus, UniProt P00760).
T2 construct: purchased Sigma
T2 sequence (P00760 24-246): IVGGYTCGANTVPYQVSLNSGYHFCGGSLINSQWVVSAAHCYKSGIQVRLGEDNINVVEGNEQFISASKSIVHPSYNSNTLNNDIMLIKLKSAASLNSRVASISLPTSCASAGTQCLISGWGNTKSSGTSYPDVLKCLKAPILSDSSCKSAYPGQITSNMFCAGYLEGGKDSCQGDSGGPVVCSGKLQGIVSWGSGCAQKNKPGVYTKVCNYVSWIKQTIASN
The experiment in a line: Trypsin-catalyzed hydrolysis of chromogenic substrate Spectrozyme TRY (in vitro enzyme assay). Format: biochemical. The conditions noted are these: 3.2 U/ml trypsin, 0.1-0.3 mM Spectrozyme TRY; read-out: Trp IC50. The protocol:
The compounds of the invention were tested for their ability to inhibit thrombin mediated hydrolysis. An in vitro enzyme assay was performed as well as an ex vivo assay. In addition, the compounds were tested in vitro for their ability to inhibit trypsin, as an indication of their selectivity.
Trypsin-catalyzed hydrolysis rates were measured using the same method as the thrombin procedure.
The compound numbers in the table correspond to the examples described hereinafter.

For data set [1] the following is noted: rat, in vivo, iv.
Description: (§1) An ex vivo assay was conducted to determine the duration of action of the compounds of Formula I. For this i.v. assay male rats (Long Evans, 350-500 g) were implanted with a teflon cannulae via the femoral artery while under anesthesia (pentobarbital i.p., 35 mg/kg). […] The animals were allowed to recover for at least 24 h after the surgical procedure.
(§2) The test compound was dispersed in water and delivered to the animal (0.25 mL) via the femoral vein. […] A plasma sample was obtained by centrifuging the blood at 10,000 rpm for 5 min. This sample is analyzed for thrombin inhibition using the chromogenic assay, described below.
(§3) Datum was collected over a 30 min period and the initial rate of substrate hydrolysis (V0 (mOD/min)) was calculated with an analysis program (Softmax, Molecular Devices).
(§4) The time to half plasma elimination (t 1/2) was calculated from the slope of Vo vs. time, using the following equation: t 1/2=-1.6 slope.
Data set [2] can be described thus: Ex vivo i.v. assay for duration of action: time to half plasma elimination from thrombin inhibition in rat plasma. The note with it: male Long Evans rats, i.v. via femoral vein, from slope of Vo vs. time.
Description: as §1, §2, §3, §4
Another data set deals with trypsin. The conditions noted are these: pancreatic agents quoted for comparison; read-out: IC50 (trypsin inhibitors used clinically); cited from earlier work.
The nature of data set [3]: Ex vivo bioavailability assay, i.v. and p.o. dosing, thrombin inhibition in rat plasma. The note with it: male rats, p.o. vs i.v., extrapolated drug in plasma vs. time. The protocol:
Bioavailability was determined by an ex vivo assay which incorporated hydrolysis rates from drug administered both i.v. and p.o. In this assay male rats were prepared as described above with a teflon tube implanted in their femoral artery. […] The test compound was dispersed in water (0.3-3.0 mg/mL final conc.) and delivered to the animals (0.25 mL) either i.v. or p.o..
A standard curve was generated by adding of drug or vehicle (100 μL) to whole blood (900 μL) followed by incubating (5 min) and centrifuging to obtain plasma. The percentage of thrombin inhibition was calculated by comparing the V0 of the vehicle to that of the drug treated samples. Datum from several runs were normalized with a statistical package (SAS) to generate a standard curve.
The percentage of thrombin inhibition in the treated animals was calculated by comparing the V0 prior to treatment with the V0 obtained from samples collected after treatment. The percent inhibition was applied to the standard curve (generated above) using the statistical package (SAS) and the quantity of drug in the sample was extrapolated.
Bioavailability (Bioavail.) was calculated from the plots of the extrapolated drug in sample vs. time for both i.v. and p.o. administration using the following equation:
%Bioavail. =(i.v. dose administered/p.o. dose administered)×(area under p.o. curve/area under curve i.v.)

Like-named read-outs stand apart in the source and are kept apart here.

As usually defined, the IC50 is the concentration at which inhibition is half-maximal. One may read the Ki as the equilibrium dissociation constant of an inhibitor or competing ligand from its target.

Description for human alpha-thrombin: Thrombin-catalyzed hydrolysis rates were measured spectrophotometrically using commercial human alpha-thrombin (American Diagnostica), a chromogenic substrate (Spectozyme® TH (H-D-HHT-Ala-Arg-pNA.2AcOH), American Diagnostica) in aqueous buffer (10 mM Tris, 10 mM Hepes, 150 mM NaCl, 0.1% PEG; pH 7.4), and a microplate reader (Molecular Devices). Changes in absorbance at 405 nm were monitored (Softmax, Molecular Devices), upon addition of enzyme, both with and without inhibitor present at 37° C. over 30 minutes. […] Michaelis-Menton kinetics were applied to the initial reaction slopes. […] Michaelis-Menton kinetics were applied to the initial reaction slopes using the program K.Cat (Bio Metallics Inc.).

In the case of `CN[C@H](Cc1c(F)c(F)c(F)c(F)c1F)C(=O)N1CCC[C@H]1C(=O)N[C@@H](CCCNC(=N)N)C(=O)c1nc2ccccc2s1` [Compound 30], the IC50 at human alpha-thrombin is 29 nM; at Bovine type 1 trypsin, 2 nM. Also, the “t1/2 (time to half plasma elimination)” value in data set [1] is given as 6 min.
Consider `CNC(C(=O)N1CCC[C@H]1C(=O)N[C@@H](CCCNC(=N)N)C(=O)c1nc2ccccc2s1)c1ccccc1` (single isomer, unassigned) [Compound 34], for which the IC50 on Bovine type 1 trypsin was 3 nM. In data set [2], the “t1/2 (time to half plasma elimination)” value is listed as 26 min.
On to `CN[C@H](Cc1ccccc1)C(=O)N1CCC[C@H]1C(=O)N[C@@H](CCCNC(=N)N)C(=O)c1nc2c(s1)CCCC2` [Compound 51, N-METHYL-D-PHENYLALANYL-N-[4-[(AMINOIMINOMETHYL)AMINO]-1S-[(4,5,6,7-TETRAHY DROBENZOTHIAZOL-2-YL)CARBONYL]BUTYL]-L-PROLINAMIDE], for which the IC50 on human alpha-thrombin turned out to be 17 nM; on Bovine type 1 trypsin, 7 nM. Besides, the “t1/2 (time to half plasma elimination)” value in data set [1] was found to be 17 min.
The like results for `CCOC(=O)c1csc(C(=O)[C@H](CCCNC(=N)N)NC(=O)[C@@H]2CCCN2C(=O)[C@@H](Cc2ccccc2)NC)n1` [Compound 19, N-METHYL-D-PHENYLALANYL-N-[4-[(AMINOIMINOMETHYL)AMINO]-1S-[(4-ETHOXYCARBONY LTHIAZOL-2-YL)CARBONYL]BUTYL]-L-PROLINAMIDE] were, in that order, 26 nM, 5 nM and 14 min.
In the case of `CN(C)C(=O)COC(=O)Cc1ccc(OC(=O)c2ccc(NC(=N)N)cc2)cc1` [camostat mesilate], the IC50 in the data set on trypsin is 10 nM.
`CN[C@H](Cc1ccccc1)C(=O)N1CCC[C@H]1C(=O)N[C@@H](CCCNC(=N)N)C(=O)c1nc(C(=O)O)cs1` [Compound 54, N-METHYL-D-PHENYLALANYL-N-[4-[(AMINOIMINOMETHYL)AMINO]-1S-[(4-CARBOXYTHIAZO L-2-YL)CARBONYL]BUTYL]-L-PROLINAMIDE]: the figures for the IC50 at human alpha-thrombin and at Bovine type 1 trypsin were 110 nM and 13 nM, respectively. Besides, the “t1/2 (time to half plasma elimination)” value in data set [1] worked out at 15 min.
The like results for `CNC(Cc1ccccc1)C(=O)N1CCCC1C(=O)NC(CCCNC(=N)N)C(=O)c1nccs1` (stereo not shown) [Compound 4] were, in that order, 19 nM, 6 nM and 16 min.
On to `CN[C@H](CC1CCCCC1)C(=O)N1CCC[C@H]1C(=O)N[C@@H](CCCNC(=N)N)C(=O)c1nc2ccccc2s1` [Compound 29, N-METHYL-D-CYOLOHEXYLALANYL-N-[4-[(AMINOIMINOMETHYL)AMINO]-1S-[(BENXOTHIAZO L-2-YL)CARBONYL]BUTYL]-L-PROLINAMIDE], for which, on Bovine type 1 trypsin, the IC50 came out at 2 nM. In addition, the “t1/2 (time to half plasma elimination)” value in data set [1] stood at 14 min.
The matching figures for `CN[C@H](Cc1ccccc1)C(=O)N1CCC[C@H]1C(=O)N[C@@H](CCCNC(=N)N)C(=O)c1nc2ccc(C(=O)O)cc2s1` [Compound 13, N-METHYL-D-PHENYLALANYL-N-[4-[(AMINOIMINOMETHYL)AMINO]-1S-[(6-CARBOXYBENXOT HIAZOL-2-YL)CARBONYL]BUTYL]-L-PROLINAMIDE]: 2 nM and 25 min.
For `CC(=O)N[C@H](Cc1ccccc1)C(=O)N1CCC[C@H]1C(=O)N[C@@H](CCCNC(=N)N)C(=O)c1nc2ccccc2s1.O=C(O)C(F)(F)F` [Compound 35], the IC50 at human alpha-thrombin amounted to 201 nM; at Bovine type 1 trypsin it was 2 nM. In addition, in data set [1], the “t1/2 (time to half plasma elimination)” value is reported as 11 min.
For the molecule `CN[C@H](Cc1ccc(F)cc1)C(=O)N1CCC[C@H]1C(=O)N[C@@H](CCCNC(=N)N)C(=O)c1nc2ccccc2s1` [Compound 32, N-METHYL-D-(4-FLUOROPHENYL)ALANYL-N-[4-[(AMINOIMINOMETHYL)AMINO]-1S-[(BENXO THIAZOL-2-YL)CARBONYL]BUTYL]-L-PROLINAMIDE], the IC50 on Bovine type 1 trypsin amounted to 2 nM. Moreover, the “t1/2 (time to half plasma elimination)” value in data set [1] is 19 min.
Turning to `CNC(Cc1ccccc1)C(=O)N1CCCC1C(=O)NC(CCCNC(=N)N)C(=O)c1nc2ccccc2[nH]1` (stereo not shown) [Compound 21], the results for the IC50 at human alpha-thrombin and on Bovine type 1 trypsin were 24 nM and 51 nM, respectively. In data set [1], the “t1/2 (time to half plasma elimination)” value is listed as 5 min.
As to `CN[C@H](Cc1ccccc1)C(=O)N1CCC[C@H]1C(=O)N[C@@H](CCCNC(=N)N)C(=O)c1nc2ccc(F)cc2s1` [Compound 17, N-METHYL-D-PHENYLALANYL-N-[4-[(AMINOIMINOMETHYL)AMINO]-1S-[(6-FLUOROBENXOTH IAZOL-2-YL)CARBONYL]BUTYL]-L-PROLINAMIDE], the IC50 at Bovine type 1 trypsin was 4 nM. Also, the “t1/2 (time to half plasma elimination)” value in data set [1] is listed as 8 min.
Take `N=C(N)c1ccc2cc(OC(=O)c3ccc(N=C(N)N)cc3)ccc2c1` [nafamostat]: the IC50 in the data set with trypsin was 13 nM.
With `CN[C@H](Cc1ccccc1)C(=O)N1CCC[C@H]1C(=O)N[C@@H](CCCNC(=N)N)C(=O)c1nc2ccc(O)cc2s1` [Compound 25, N-METHYL-D-PHENYLALANYL-N-[4-[(AMINOIMINOMETHYL)AMINO]-1S-[(6-HYDROXYBENXOT HIAZOL-2-YL)CARBONYL]BUTYL]-L-PROLINAMIDE], the “t1/2 (time to half plasma elimination)” value in data set [2] was determined as 14 min.
Turning to `CN[C@H](Cc1ccccc1)C(=O)N1CCC[C@H]1C(=O)N[C@@H](CCCNC(=N)N)C(=O)c1nc2ccccc2s1` [Compound 1, N-METHYL-D-PHENYLALANYL-N-[4-[(AMINOIMINOMETHYL)AMINO]-1S-[(BENXOTHIAZOL-2- YL)CARBONYL]BUTYL]-L-PROLINAMIDE], the Ki at human alpha-thrombin (5-100 μM Spectozyme TH, read-out: Thr Ki (listed in place of the IC50)) was determined as 0.23 nM. Also, the “Bioavail,” value in data set [3] is 1.2%. The “t1/2 (time to half plasma elimination)” value in data set [1] amounted to 19 min.

Values taken from patent publication US5523308A, “Peptidyl heterocycles useful in the treatment of thrombin related disorders” (priority 1995, dated 1996).
